# Laboratory results published in patent publication US4407818A, “Anti viral, anti bacterial and/or anti fungal composition containing metal oxyalkylate” (Bio-Systems Research, Inc., priority 1981, dated 1983).
# “And” between values parts separate entries of the source, which are not always exact repeats. Equal values may be shown once. “Also recorded” adds a separate entry of the source.
# Columns and labels:
# HSV-2 [1] = assay: Plaque assay, HSV-2 (Examples 5-7); type: cell-based, Herpes simplex virus type II
# Echo 5 = assay: CPE trial on Echo 5 (Examples 12-14); type: cell-based; details: in words
# HSV-1 [2] = assay: Plaque assay, HSV-1 (Examples 8-11); type: cell-based, Herpes simplex virus type I
# HSV-2 [3] = assay: CPE trial on HSV-2 (Examples 15-16); type: cell-based, Herpes simplex virus type II
# Polio 1 = type: cell-based; details: in words; CPE trial
# Adenovirus type 4 = assay: CPE trial on Adenovirus type 4 using KB cells (Example 17); type: cell-based
# HSV-1 [4] = assay: CPE trial on HSV-1 (Examples 15-16); type: cell-based, Herpes simplex virus type I; details: in words
# Trichophyton rubrum = assay: Inhibition of molds, size of cleared area (Example 4); type: cell-based; details: 0.1 ml of a 1% solution containing 0.1% Tween 80
# Experimental: (§1) Bread mold is innoculated on a nutrient plate.
# (§2) In a test similar to that of Example 2, zinc oxyacetate is tested for inhibition of four bread molds. The amount of zinc oxyacetate is 0.1 ml of a 1% solution containing 0.1% Tween 80. The amount of mold is 0.1 ml.
# Candida albicans = assay: as above; type: cell-based; details: 0.1 ml of a 1% solution containing 0.1% Tween 80
# Experimental: as §1, §2
# Microsporum canis = assay: as above; type: cell-based; details: 0.1 ml of a 1% solution containing 0.1% Tween 80
# Experimental: as §1, §2
# [5] = system: Trichophyton mentagrophytes; assay: as above; type: cell-based; details: 0.1 ml of a 1% solution containing 0.1% Tween 80
# Experimental: as §1, §2
# [6] = system: Herpes simplex virus type 1 (HSV-1); assay: Neutralization of viral cytopathogenic effect (CPE) on BGM cells, HSV-1 (Example 3); type: cell-based
# Experimental: (§3) Evaluation of the compound is made using a simple neutralization of viral cytopathogenic effect (CPE) on Buffalo Green Monkey (BGM) cells using two tubes for each dilution of virus. […] In order to evaluate zinc oxyacetate, the compound (or the compound in equal weight admixture with lauryl alcohol) is incubated for 1 hour with the virus prior to making ten-fold serialdilutions and innoculating the BGM tubes. The amount of virus used is 0.1 ml. The amount of test material used is 0.1 ml of a solution containing 0.1% of Tween 80 and 0.1% of the test material.
# Bread mold = assay: Disc growth inhibition of bread mold on nutrient plate (Example 2); type: cell-based
# Experimental: (§4) A stock (1%) solution is prepared by dissolving 0.1 gm of zinc ocyacetate in 10 ml of water. A 1/2 dilution (0.5% solution) is made by admixing 5 ml of the stock solution and 5 ml of water. A 1/4 dilution (0.25% solution) is made by admixing 5 ml of the 0.5% solution and 5 ml of water. A 1/10 dilution (0.1% solution) is made by admixing 1 ml of the stock (1%) solution and 9 ml of water. Fine filter paper discs of 1 cm diameter are placed in each of four clean petri dishes. In dish #1, 0.1 ml of the 1% solution is dropped onto each filter disc and allowed to air dry. The same is done in dish #2 except that the 0.5% solution is used. The same is done on dishes #3 and #4 except that the 0.25 and 0.1% solutions, respectively,are used. One ml of a previously prepared 1×10^-4 dilution of a broth bacterial culture (Staphylococcus aureus) is then spread evenly over the entire surface of four agar plates. At the 12 o'clock position on each of the agar plates, a disc from dish #1 (1% solution) is placed. Discs from dishes #2, #3 and #4 are similarly placed at the 3 o'clock, 6 o'clock, and 9 o'clock positions, respectively, of each of the four plates. Each disc is gently pressed to enure good contact with the agar surface. For comparison purposes, a further stock solution of zinc sulphate (1%) is made up and an identical series of tests made. Each plate is incubated overnight at 37° C. and the area of inhibition--the clear area around each disc--is measured. Bread mold is innoculated on a nutrient plate.
# Staphylococcus aureus [7] = assay: Filter paper disc bacterial inhibition test on agar plates (Example 1); type: cell-based; details: for Clear Area, Average: average of plates 1-4; for Clear Area: single plate, overnight at 37° C.
# Experimental: as §4, with “measured.” for “measured. Bread mold is innoculated on a nutrient plate.”
# HSV-2 [8] = assay: Neutralization of viral cytopathogenic effect (CPE) on BGM cells, HSV-2 (Example 3); type: cell-based, Herpes simplex virus type II
# Experimental: as §3
# Staphylococcus aureus [9] = assay: Filter paper disc bacterial inhibition test on agar plates (Example 1); type: cell-based; details: .01% solution (as headed); for Clear Area, Average: average of plates 1-4; for Clear Area: single plate, overnight at 37° C., -- counted as zero in the average
# [10] = Visible precipitate under sensitivity disc (Example 1); type: physicochemical; details: 1% and 0.50% concentration
# Experimental: as §4, with “For comparison purposes, a further stock solution of zinc sulphate (1%) is made up and an identical series of tests made.” left out, “measured.” for “measured. Bread mold is innoculated on a nutrient plate.”
smiles,measurement,setting,value
"CC(=O)[O-].CC(=O)[O-].CC(=O)[O-].CC(=O)[O-].CC(=O)[O-].CC(=O)[O-].[Mn+2].[Mn+2].[Mn+2].[Mn+2].[O-2] [Manganese compound, Magnanese oxyacetate]","plaque assay result, HSV-2","HSV-2 [1]; HSV-2 10^-1 (Example 5), control ND",Toxic
same,"plaque assay result, HSV-2","HSV-2 [1]; HSV-2 10^-2 (Example 6), control 39",4
same,"plaque assay result, HSV-2","HSV-2 [1]; HSV-2 10^-3 (Example 7), control 5",0
same,inhibition of HSV-2 (plaque assay),HSV-2 [1]; in words,less effective than the zinc composition; also recorded: both substances inhibited HSV-2
same,solubility (in words),Solubility in 2% FBS-MEM,readily soluble
same,effectiveness against Echo 5,Echo 5,not effective
same,"plaque assay result, HSV-1","HSV-1 [2]; HSV-1 10^-2 (Example 8), 0% methylcellulose overlay, control TNC (too numerous to count)",90
same,"plaque assay result, HSV-1","HSV-1 [2]; HSV-1 10^-2 (Example 8), 1.5% methylcellulose overlay, control ND, Irr = irregular results, TNC = too numerous to count",Irr
same,"plaque assay result, HSV-1","HSV-1 [2]; HSV-1 10^-2 (Example 8), 2% methylcellulose overlay, control ND, Irr = irregular results, TNC = too numerous to count",Irr
same,"plaque assay result, HSV-1","HSV-1 [2]; HSV-1 10^-3 (Example 9), 0% methylcellulose overlay, control 34",11
same,"plaque assay result, HSV-1","HSV-1 [2]; HSV-1 10^-3 (Example 9), 1.5% methylcellulose overlay, control TNC",45
same,"plaque assay result, HSV-1","HSV-1 [2]; HSV-1 10^-3 (Example 9), 2% methylcellulose overlay, control 115",46
same,"plaque assay result, HSV-1","HSV-1 [2]; HSV-1 10^-4 (Example 10), 0% methylcellulose overlay, control 6",4
same,"plaque assay result, HSV-1","HSV-1 [2]; HSV-1 10^-4 (Example 10), 1.5% methylcellulose overlay, control 38",5
same,"plaque assay result, HSV-1","HSV-1 [2]; HSV-1 10^-4 (Example 10), 2% methylcellulose overlay, control 10",5
same,"plaque assay result, HSV-1","HSV-1 [2]; HSV-1 10^-5 (Example 11), 0% methylcellulose overlay, control 5",0
same,"plaque assay result, HSV-1","HSV-1 [2]; HSV-1 10^-5 (Example 11), 1.5% methylcellulose overlay, control 3",0
same,"plaque assay result, HSV-1","HSV-1 [2]; HSV-1 10^-5 (Example 11), 2% methylcellulose overlay, control 3",0
same,size of the BGM cells,HSV-2 [3]; 10^-1 dilution of HSV-2,increase in the size of the BGM cells
same,inhibition of HSV-2,"HSV-2 [3]; 10^-1 dilution of HSV-2, BGM cells",inhibit the virus completely
same,inhibition of HSV-2,"HSV-2 [3]; 10^-2 and 10^-3 dilution, one tube in each dilution, later typical syncytial formation",early inhibition of virus
same,"CPE result (titer column), HSV-2","HSV-2 [3]; BGM cells, control 10^-2.5",Inhibition
same,effectiveness against HSV-2,"HSV-2 [3]; in words, CPE trial",effective against HSV-2
same,type of action against HSV-2 (viristatic / viricidal),"HSV-2 [3]; in words, CPE trial",apparent viristatic action
same,effectiveness against Polio 1,Polio 1,not effective
same,"titer, Adenovirus type 4",Adenovirus type 4; in all cases,10^-3
same,effectiveness in inhibiting the CPE of Adenovirus type 4,Adenovirus type 4; in words,neither the test compound nor Zn carrier are effective
same,effectiveness against HSV-1,HSV-1 [4],probably not effective against HSV-1
"CC(=O)O.CC(=O)O.CC(=O)O.CC(=O)O.CC(=O)O.CC(=O)O.[O-2].[Zn+2].[Zn+2].[Zn+2].[Zn+2] [Zinc oxyacetate, zibnc, hexakis(acetato) oxotetra]","Size of cleared area, Trichophyton rubrum",Trichophyton rubrum,5 mm
same,"Size of cleared area, Candida albicans",Candida albicans,9 mm
same,"Size of cleared area, Microsporum canis",Microsporum canis,8 mm
same,"Size of cleared area, Trichophyton mentagrophytes",[5],9 mm
same,"Titer based on 4+(100%) CPE, HSV-1","[6]; BGM cells, 1 hour preincubation with virus, 0.1% test material, 0.1% Tween 80, control 10^-4",10^-3
same,effectiveness in inhibiting the virus,"[6]; in words, HSV-1, BGM cells",effective in inhibiting the virus
same,"log inhibition, HSV-1",[6]; titer reduction versus control,1 log
same,growth inhibition of bread mold,Bread mold; 1% solution,good growth inhibition
same,growth inhibition of bread mold,Bread mold; less concentrated solution,does not noticeably inhibit growth
same,growth inhibition of bread mold,Bread mold; undiluted material,good growth inhibition
same,"Clear Area, Average",Staphylococcus aureus [7]; 1% solution,1.82 cm
same,Clear Area,Staphylococcus aureus [7]; 1% solution,1.85 cm and 1.80 cm and 1.78 cm
same,"Clear Area, Average",Staphylococcus aureus [7]; .25% solution,1.37 cm
same,Clear Area,Staphylococcus aureus [7]; .25% solution,1.32 cm and 1.35 cm and 1.40 cm and 1.42 cm
same,"Clear Area, Average",Staphylococcus aureus [7]; .5% solution,1.64 cm
same,Clear Area,Staphylococcus aureus [7]; .5% solution,1.70 cm and 1.52 cm and 1.61 cm and 1.72 cm
same,bacteriostatic qualities,"Staphylococcus aureus [7]; in words, versus zinc sulphate",bacteriostatic qualities comparable to those of zinc sulphate
same,"Titer based on 4+(100%) CPE, HSV-2","HSV-2 [8]; BGM cells, 1 hour preincubation with virus, 0.1% test material, 0.1% Tween 80, control 10^-2",0
same,effectiveness in inhibiting the virus,"HSV-2 [8]; in words, HSV-2, BGM cells",effective in inhibiting the virus
same,"log inhibition, HSV-2",HSV-2 [8]; titer reduction versus control,2 log
same,"Clear Area, Average",Staphylococcus aureus [9],0.31 cm
same,Clear Area,Staphylococcus aureus [9],1.25 cm
"O=S(=O)([O-])[O-].[Zn+2] [Zinc sulphate, zinc sulphate, reference compound]","Clear Area, Average",Staphylococcus aureus [7]; 1% solution,1.66 cm
same,Clear Area,Staphylococcus aureus [7]; 1% solution,1.80 cm and 1.72 cm and 1.71 cm and 1.42 cm
same,"Clear Area, Average",Staphylococcus aureus [7]; .25% solution,1.37 cm
same,Clear Area,Staphylococcus aureus [7]; .25% solution,1.40 cm and 1.39 cm and 1.31 cm
same,"Clear Area, Average",Staphylococcus aureus [7]; .5% solution,1.44 cm
same,Clear Area,Staphylococcus aureus [7]; .5% solution,1.50 cm and 1.45 cm and 1.41 cm and 1.40 cm
same,visible precipitate under each sensitivity disc,[10],a visible precipitate formed under each sensitivity disc
same,"Clear Area, Average",Staphylococcus aureus [9],0.61 cm
same,Clear Area,Staphylococcus aureus [9],1.22 cm and 1.21 cm
